Source: patent US20080026996A1, “Selective Vpac2 Receptor Reptide Agonists” (ELI LILLY AND COMPANY, priority 2004, published 2008)
Where “and” joins values, the source holds several entries; their conditions need not be identical. Equal entries are not always repeated. Where no end group is shown, it is not given here. The star is where a group is joined. Hexanoyl = CCCCCC(=O)*

Legend:
human PAC1 [1] = target: T1, human PAC1 (Homo sapiens, UniProt P41586); assay: DiscoveRx cAMP in vitro potency, CHO-PO cells transiently transfected with human PAC1 receptor; type: cell-based; parameters: expressed in transfected cells; host or cells: CHO-PO, transient (Lipofectamine); details: cAMP generation; mean of two independent runs; read-out: Human PAC1 Receptor: DiscoveRx EC50
T1 sequence (P41586 21-468): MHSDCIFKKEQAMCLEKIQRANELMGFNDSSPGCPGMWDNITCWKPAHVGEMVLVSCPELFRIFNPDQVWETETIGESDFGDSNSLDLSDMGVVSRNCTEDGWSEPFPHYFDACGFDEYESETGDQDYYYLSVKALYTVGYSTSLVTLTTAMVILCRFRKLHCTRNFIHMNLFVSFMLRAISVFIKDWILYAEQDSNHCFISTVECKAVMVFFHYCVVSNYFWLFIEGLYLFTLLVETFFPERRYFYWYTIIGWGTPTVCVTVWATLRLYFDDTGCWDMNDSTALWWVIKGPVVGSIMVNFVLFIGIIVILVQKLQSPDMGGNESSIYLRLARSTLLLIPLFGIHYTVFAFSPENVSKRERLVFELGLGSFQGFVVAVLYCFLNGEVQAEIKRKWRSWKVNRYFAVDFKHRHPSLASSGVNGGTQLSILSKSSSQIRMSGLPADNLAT
Experimental: Also, the cells are washed twice. The cells are incubated in assay buffer plus IBMX for 15 minutes at room temperature. […] The stimuli are present for 30 minutes. Then, the assay buffer is gently removed. […] At day 3, the assay described above for the VPAC2 receptor cell line is performed.

human VPAC2 [2] = target: T2, human VPAC2 (Homo sapiens, UniProt P41587); assay: Filter binding assay, membranes of stable VPAC2 cell line, 125I-labeled VIP tracer (Table 2); details: read-out: Human VPAC2 Receptor Binding
T2 construct: expressed in transfected cells
T2 sequence (P41587 24-438): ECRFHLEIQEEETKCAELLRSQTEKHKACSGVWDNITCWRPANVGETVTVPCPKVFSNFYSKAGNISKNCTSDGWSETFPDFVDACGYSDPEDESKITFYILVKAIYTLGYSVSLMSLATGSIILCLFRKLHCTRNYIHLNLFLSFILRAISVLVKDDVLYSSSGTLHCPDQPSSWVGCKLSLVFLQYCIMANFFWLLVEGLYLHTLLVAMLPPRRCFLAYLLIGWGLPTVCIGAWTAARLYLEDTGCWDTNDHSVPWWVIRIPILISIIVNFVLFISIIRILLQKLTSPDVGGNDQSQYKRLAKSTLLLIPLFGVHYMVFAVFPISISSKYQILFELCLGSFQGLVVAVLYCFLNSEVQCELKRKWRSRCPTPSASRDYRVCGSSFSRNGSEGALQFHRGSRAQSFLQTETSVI
How it was run: (§1)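 Competition binding of agonists against radiotracer on receptor membranes (2.5 μg) in 25 mM HEPES pH 7.4 with 0.5% protease-free BSA, about 40000 cpm tracer, 1 hour with shaking. Bound tracer was separated by filtration on PEI-presoaked, BSA-blocked glass-fibre filters, washed and counted by scintillation.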

human VPAC1 = target: T3, human VPAC1 (Homo sapiens, UniProt P32241); assay: Filter binding assay, membranes of cells transiently transfected with human VPAC1, 125I-labeled VIP tracer (Table 2); parameters: expressed in transfected cells; details: read-out: Human VPAC1 Receptor Binding
T3 sequence (P32241 31-457): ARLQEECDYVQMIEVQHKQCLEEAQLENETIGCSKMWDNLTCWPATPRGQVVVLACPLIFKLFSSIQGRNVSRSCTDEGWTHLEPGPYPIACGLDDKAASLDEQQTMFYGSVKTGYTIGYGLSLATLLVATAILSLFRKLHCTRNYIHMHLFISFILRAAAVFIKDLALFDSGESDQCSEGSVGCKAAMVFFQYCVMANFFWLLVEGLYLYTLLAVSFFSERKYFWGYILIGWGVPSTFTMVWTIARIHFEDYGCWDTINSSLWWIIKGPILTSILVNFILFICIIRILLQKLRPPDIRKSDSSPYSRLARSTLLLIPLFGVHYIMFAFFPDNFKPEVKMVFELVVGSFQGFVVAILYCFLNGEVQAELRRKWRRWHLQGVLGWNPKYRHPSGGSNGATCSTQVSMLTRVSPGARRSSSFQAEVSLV
How it was run: as §1

human VPAC2 [3] = target: T2, human VPAC2; assay: Alpha screen cAMP in vitro potency, human VPAC2 receptor; type: cell-based; details: cAMP generation; single result from two analyses performed in a single run; read-out: Human VPAC2 Receptor: Alpha Screen EC50
How it was run: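 Dissociated cells, 50,000 per point in stimulation buffer, were incubated with stimuli and AlphaScreen acceptor beads for 60 min.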

DPP-IV = target: T4, DPP-IV (Sus scrofa, UniProt P22411); assay: DPP-IV HPLC assay: in vitro incubation with purified dipeptidyl-peptidase IV; type: in vitro ADME, Porcine
T4 construct: purchased Sigma
T4 sequence (P22411 whole entry): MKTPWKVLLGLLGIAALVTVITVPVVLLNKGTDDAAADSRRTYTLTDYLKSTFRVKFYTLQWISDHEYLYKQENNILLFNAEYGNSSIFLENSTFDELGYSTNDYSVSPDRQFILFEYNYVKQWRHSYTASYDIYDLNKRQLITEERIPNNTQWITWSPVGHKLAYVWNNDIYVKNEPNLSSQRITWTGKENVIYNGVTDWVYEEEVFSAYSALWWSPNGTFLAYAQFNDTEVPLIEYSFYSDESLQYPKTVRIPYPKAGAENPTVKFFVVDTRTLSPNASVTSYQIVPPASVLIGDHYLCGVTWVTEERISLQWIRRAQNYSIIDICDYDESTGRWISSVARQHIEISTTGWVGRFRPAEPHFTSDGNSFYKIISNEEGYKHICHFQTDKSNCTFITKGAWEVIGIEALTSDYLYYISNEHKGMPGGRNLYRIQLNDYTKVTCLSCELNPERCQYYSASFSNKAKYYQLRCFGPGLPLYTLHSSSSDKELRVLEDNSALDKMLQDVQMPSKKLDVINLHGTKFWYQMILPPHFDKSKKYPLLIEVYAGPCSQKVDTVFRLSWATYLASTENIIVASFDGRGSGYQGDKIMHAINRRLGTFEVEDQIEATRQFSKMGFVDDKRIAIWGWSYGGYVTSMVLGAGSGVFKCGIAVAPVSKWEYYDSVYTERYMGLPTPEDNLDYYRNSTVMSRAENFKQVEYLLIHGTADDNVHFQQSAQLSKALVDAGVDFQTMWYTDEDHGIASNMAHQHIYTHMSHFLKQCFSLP
Experimental: Part 1: Formulation of Selective VPAC2 Receptor Peptide Agonists: […]
Approximately 2 mg of lyophilized peptide is weighed and dissolved in approximately 1.6 mL de-ionized water. […] After incubation at room temperature for 30 minutes, 1/10th of the original volume 10×PBS is added. The pH is adjusted to between pH 7.2 and 7.6. The peptide solution is filtered through a 0.22 μm Millex-GV syringe filter (Millipore, Bedford Mass., USA). The peptide concentration is determined through absorption at 280 nm. The peptide concentration is then adjusted to 100 μM. The peptides are frozen at −20° C. for further use.
Part 2: In Vitro Incubation of Selective VPAC2 Receptor Peptide Agonists with Purified Dipeptidyl-Peptidase IV (DPP-IV):
The stability of selective VPAC2 receptor peptide agonists against proteolysis by DPP-IV is determined using 100 μL of a 100 μM peptide solution in 1×PBS. A 10 μL solution is removed and quenched with 40 μL of 0.1% trifluoroacetic acid (TFA)/20% acetonitrile (ACN). This solution (20 μL) is analyzed by reversed-phase HPLC. The reversed-phase analysis consists of a Zorbax 300SB-C8 column (3.5 micron, 4.6×50 mm, Alltech Associates, Inc., Deerfield Ill., USA) running a 15-40% B gradient over 15 minutes at 60° C. where A-buffer is 0.1% (v/v) TFA in water and B-buffer is 0.085% (v/v) TFA in ACN. The peak area is integrated. This peak area serves as an internal control as 100% intact peptide.
A 10 μL aliquot of a 1.12 mU/μL solution of DPP-IV (Sigma, St. Louis, La., USA) is added to 90 μL of a 100 μM solution of peptide, resulting in a substrate concentration of 90 μM peptide. The reaction mixture is then stored at 37° C. At various time-points, 10 μL of solution is removed, quenched with 40 μL 0.1% TFA/20% ACN, and analyzed by reversed-phase HPLC as described above. The remaining full length peptide concentration (nM) at each timepoint, except time=0, is calculated using following formula: [formula]
For the time=0 timepoint, the concentration (nM) is calculated using the following formula: [formula]

human PAC1 [4] = target: T1, human PAC1; assay: Filter binding assay, membranes of cells transiently transfected with human PAC1, 125I-labeled PACAP-27 tracer (Table 2); parameters: expressed in transfected cells; details: read-out: Human PAC1 Receptor Binding
How it was run: as §1

Substance | EC50 (human PAC1 [1]) | IC50 (human VPAC2 [2]) | IC50 (human VPAC1) | also measured
HSDYVFTDNYTRLRKQVAAKKYLQSIKNKRYGGPSSGAPPPS [Agonist P51] | > 1000 nM | – | – | –
HSDAVFTDNYTRLRKQVAAKKYLQSIKNRRYGGPSSGAPPPS [Agonist P25] | 137 nM | 1.65 nM | 233 nM | –
HSDAVFTDNYTRLRKQVAASKYLQSIKNKRYGGPSSGAPPPS [Agonist P21] | > 100 nM | 4.94 nM | 385 nM | EC50 (human VPAC2 [3]): 11.6 nM
H-HSDAVFTDNYTRLRKQVAAKKYLQSIQNKRYGGPSSGAPPPS [Agonist P74] | 145 nM | – | – | –
H-HSDAVFTDNYTRLRKQVAAKKYLQSIKNKRYC [Agonist P37] | 35.6 nM | – | – | –
Hexanoyl-HSDAVFTDNYTRLRKQVAAKKYLQSIKNKRYGGPSSGAPPPS [VPAC2-P31] | – | – | – | Concentration (nM) of Remaining Main Peak by RP-HPLC after Incubation of Peptide with Purified Porcine DPP-IV (DPP-IV; Time = 0 hours at 37° C.): 9.0 nM; Concentration (nM) of Remaining Main Peak by RP-HPLC after Incubation of Peptide with Purified Porcine DPP-IV (DPP-IV; Time = 2 hours at 37° C.): 8.0 nM and 7.0 nM and 6.7 nM; Concentration (nM) of Remaining Main Peak by RP-HPLC after Incubation of Peptide with Purified Porcine DPP-IV (DPP-IV; Time = 6 hours at 37° C.): 6.7 nM and 6.1 nM and 5.6 nM; Concentration (nM) of Remaining Main Peak by RP-HPLC after Incubation of Peptide with Purified Porcine DPP-IV (DPP-IV; Time = 24 hours at 37° C.): 2.2 nM and 2.6 nM and 3.9 nM
HSDAVFTDNYTRLRKQVAAKKYLQSIKNKRYGGPSSGAPPPS [Agonist P6] | > 40 nM | 2.58 nM | 195 nM | EC50 (human VPAC2 [3]): 3.19 nM; IC50 (human PAC1 [4]): 334 nM
HSDAVFTDNWTRLRKQVAAKKYLQSIKNKRYGGPSSGAPPPS [Agonist P27] | > 100 nM | – | – | –
